Marks after values point to notes of the source that are not given here.
System: male rats
Assay: 28-day repeated dose study, plasma metabolite profiling (GC-MS, LC-MS), male rats
Type: in vivo, rat
Source text: Drinking water was also offered ad libitum.

## CC(=O)CCC(C)=O [2,5-hexanedione]
Day 7
  18-Hydroxy-11-deoxycorticosterone, plasma, treatment ratio versus control: 0.89
  Alanine, plasma, treatment ratio versus control: 0.71*
  Arachidonic acid (C20:cis[5,8,11,14]4), plasma, treatment ratio versus control: 0.9
  Coenzyme Q9, plasma, treatment ratio versus control: 0.89
  Creatinine, plasma, treatment ratio versus control: 1.21*
  DAG (C18:1, C18:2), plasma, treatment ratio versus control: 0.51*
  Fructose-6-phosphate, plasma, treatment ratio versus control: 0.75*
  Galactose, lipid fraction, plasma, treatment ratio versus control: 0.96
  Glucosamine, plasma, treatment ratio versus control: 0.79*
  Glucose, plasma, treatment ratio versus control: 0.85*
  Glycerol, polar fraction, plasma, treatment ratio versus control: 0.96
  Heneicosanoic acid (C21:0), plasma, treatment ratio versus control: 0.97
  Lactate, plasma, treatment ratio versus control: 0.82*
  Linolenic acid (C18:cis[9,12,15]3), plasma, treatment ratio versus control: 0.89*
  Lysine, plasma, treatment ratio versus control: 0.96*
  Malate, plasma, treatment ratio versus control: 0.79*
  Oleic acid (C18:cis[9]1), plasma, treatment ratio versus control: 0.81*
  Palmitoleic acid (C16:cis[9]1), plasma, treatment ratio versus control: 0.82*
  Phenylalanine, plasma, treatment ratio versus control: 0.85*
  Phosphate (inorganic and organic phosphates), plasma, treatment ratio versus control: 0.89*
  Pyruvate, plasma, treatment ratio versus control: 1.04
  Spermidine, plasma, treatment ratio versus control: 0.95
  TAG (C16:0,C16:1), plasma, treatment ratio versus control: 0.49*
  Uracil, plasma, treatment ratio versus control: 0.85*
  myo-Inositol, plasma, treatment ratio versus control: 0.71*
  trans-4-Hydroxyproline, plasma, treatment ratio versus control: 0.84*
Day 14
  18-Hydroxy-11-deoxycorticosterone, plasma, treatment ratio versus control: 0.33*
  Alanine, plasma, treatment ratio versus control: 0.76*
  Arachidonic acid (C20:cis[5,8,11,14]4), plasma, treatment ratio versus control: 0.93
  Coenzyme Q9, plasma, treatment ratio versus control: 1.12*
  Creatinine, plasma, treatment ratio versus control: 1.64*
  DAG (C18:1, C18:2), plasma, treatment ratio versus control: 0.6*
  Fructose-6-phosphate, plasma, treatment ratio versus control: 0.7*
  Galactose, lipid fraction, plasma, treatment ratio versus control: 0.97
  Glucosamine, plasma, treatment ratio versus control: 0.9
  Glucose, plasma, treatment ratio versus control: 0.89*
  Glycerol, polar fraction, plasma, treatment ratio versus control: 0.98
  Heneicosanoic acid (C21:0), plasma, treatment ratio versus control: 0.84
  Lactate, plasma, treatment ratio versus control: 0.69*
  Linolenic acid (C18:cis[9,12,15]3), plasma, treatment ratio versus control: 0.57*
  Lysine, plasma, treatment ratio versus control: 0.93*
  Malate, plasma, treatment ratio versus control: 0.82*
  Oleic acid (C18:cis[9]1), plasma, treatment ratio versus control: 0.81*
  Palmitoleic acid (C16:cis[9]1), plasma, treatment ratio versus control: 1.03
  Phenylalanine, plasma, treatment ratio versus control: 0.84*
  Phosphate (inorganic and organic phosphates), plasma, treatment ratio versus control: 1
  Pyruvate, plasma, treatment ratio versus control: 0.95
  Spermidine, plasma, treatment ratio versus control: 0.89*
  TAG (C16:0,C16:1), plasma, treatment ratio versus control: 0.67*
  Uracil, plasma, treatment ratio versus control: 0.83*
  myo-Inositol, plasma, treatment ratio versus control: 0.79*
  trans-4-Hydroxyproline, plasma, treatment ratio versus control: 0.91*
Day 28
  18-Hydroxy-11-deoxycorticosterone, plasma, treatment ratio versus control: 0.24*
  Alanine, plasma, treatment ratio versus control: 0.77*
  Arachidonic acid (C20:cis[5,8,11,14]4), plasma, treatment ratio versus control: 1.03
  Coenzyme Q9, plasma, treatment ratio versus control: 1.02
  Creatinine, plasma, treatment ratio versus control: 1.35*
  DAG (C18:1, C18:2), plasma, treatment ratio versus control: 0.79*
  Fructose-6-phosphate, plasma, treatment ratio versus control: 0.69*
  Galactose, lipid fraction, plasma, treatment ratio versus control: 0.99
  Glucosamine, plasma, treatment ratio versus control: 0.91*
  Glucose, plasma, treatment ratio versus control: 0.85*
  Glycerol, polar fraction, plasma, treatment ratio versus control: 0.8*
  Heneicosanoic acid (C21:0), plasma, treatment ratio versus control: 0.99
  Lactate, plasma, treatment ratio versus control: 0.66*
  Linolenic acid (C18:cis[9,12,15]3), plasma, treatment ratio versus control: 0.92*
  Lysine, plasma, treatment ratio versus control: 0.96
  Malate, plasma, treatment ratio versus control: 0.74*
  Oleic acid (C18:cis[9]1), plasma, treatment ratio versus control: 0.92*
  Palmitoleic acid (C16:cis[9]1), plasma, treatment ratio versus control: 1.11
  Phenylalanine, plasma, treatment ratio versus control: 0.89*
  Phosphate (inorganic and organic phosphates), plasma, treatment ratio versus control: 1.01
  Pyruvate, plasma, treatment ratio versus control: 0.72*
  Spermidine, plasma, treatment ratio versus control: 0.94
  TAG (C16:0,C16:1), plasma, treatment ratio versus control: 0.95
  Uracil, plasma, treatment ratio versus control: 0.87*
  myo-Inositol, plasma, treatment ratio versus control: 0.89
  trans-4-Hydroxyproline, plasma, treatment ratio versus control: 0.87*

## CCCCOCCO [2-Butoxyethanol]
Day 7
  18-Hydroxy-11-deoxycorticosterone, plasma, treatment ratio versus control: 0.18*
  Alanine, plasma, treatment ratio versus control: 0.83*
  Arachidonic acid (C20:cis[5,8,11,14]4), plasma, treatment ratio versus control: 0.86*
  Coenzyme Q9, plasma, treatment ratio versus control: 0.83*
  Creatinine, plasma, treatment ratio versus control: 1.03
  DAG (C18:1, C18:2), plasma, treatment ratio versus control: 0.99
  Fructose-6-phosphate, plasma, treatment ratio versus control: 0.84
  Galactose, lipid fraction, plasma, treatment ratio versus control: 0.8*
  Glucosamine, plasma, treatment ratio versus control: 1
  Glucose, plasma, treatment ratio versus control: 0.81*
  Glycerol, polar fraction, plasma, treatment ratio versus control: 0.86*
  Heneicosanoic acid (C21:0), plasma, treatment ratio versus control: 0.88
  Lactate, plasma, treatment ratio versus control: 0.93*
  Linolenic acid (C18:cis[9,12,15]3), plasma, treatment ratio versus control: 1.01
  Lysine, plasma, treatment ratio versus control: 0.81*
  Malate, plasma, treatment ratio versus control: 0.81*
  Oleic acid (C18:cis[9]1), plasma, treatment ratio versus control: 0.98
  Palmitoleic acid (C16:cis[9]1), plasma, treatment ratio versus control: 0.94
  Phenylalanine, plasma, treatment ratio versus control: 0.87*
  Phosphate (inorganic and organic phosphates), plasma, treatment ratio versus control: 1.05
  Pyruvate, plasma, treatment ratio versus control: 1.1
  Spermidine, plasma, treatment ratio versus control: 0.67*
  TAG (C16:0,C16:1), plasma, treatment ratio versus control: 1.16
  Uracil, plasma, treatment ratio versus control: 0.77*
  myo-Inositol, plasma, treatment ratio versus control: 0.88
  trans-4-Hydroxyproline, plasma, treatment ratio versus control: 1.03
Day 14
  18-Hydroxy-11-deoxycorticosterone, plasma, treatment ratio versus control: 0.44*
  Alanine, plasma, treatment ratio versus control: 0.93
  Arachidonic acid (C20:cis[5,8,11,14]4), plasma, treatment ratio versus control: 0.84
  Coenzyme Q9, plasma, treatment ratio versus control: 0.5*
  Creatinine, plasma, treatment ratio versus control: 1.34*
  DAG (C18:1, C18:2), plasma, treatment ratio versus control: 0.69*
  Fructose-6-phosphate, plasma, treatment ratio versus control: 1.11
  Galactose, lipid fraction, plasma, treatment ratio versus control: 0.86
  Glucosamine, plasma, treatment ratio versus control: 0.88
  Glucose, plasma, treatment ratio versus control: 0.73*
  Glycerol, polar fraction, plasma, treatment ratio versus control: 0.95
  Heneicosanoic acid (C21:0), plasma, treatment ratio versus control: 0.86*
  Lactate, plasma, treatment ratio versus control: 0.86
  Linolenic acid (C18:cis[9,12,15]3), plasma, treatment ratio versus control: 0.9*
  Lysine, plasma, treatment ratio versus control: 1
  Malate, plasma, treatment ratio versus control: 0.79*
  Oleic acid (C18:cis[9]1), plasma, treatment ratio versus control: 0.8*
  Palmitoleic acid (C16:cis[9]1), plasma, treatment ratio versus control: 0.77
  Phenylalanine, plasma, treatment ratio versus control: 0.94*
  Phosphate (inorganic and organic phosphates), plasma, treatment ratio versus control: 1.03
  Pyruvate, plasma, treatment ratio versus control: 0.78
  Spermidine, plasma, treatment ratio versus control: 0.68*
  TAG (C16:0,C16:1), plasma, treatment ratio versus control: 0.66*
  Uracil, plasma, treatment ratio versus control: 0.9
  myo-Inositol, plasma, treatment ratio versus control: 0.82*
  trans-4-Hydroxyproline, plasma, treatment ratio versus control: 1.21*
Day 28
  18-Hydroxy-11-deoxycorticosterone, plasma, treatment ratio versus control: 0.68*
  Alanine, plasma, treatment ratio versus control: 0.91*
  Arachidonic acid (C20:cis[5,8,11,14]4), plasma, treatment ratio versus control: 0.84
  Coenzyme Q9, plasma, treatment ratio versus control: 0.83
  Creatinine, plasma, treatment ratio versus control: 1.19*
  DAG (C18:1, C18:2), plasma, treatment ratio versus control: 0.78
  Fructose-6-phosphate, plasma, treatment ratio versus control: 0.61*
  Galactose, lipid fraction, plasma, treatment ratio versus control: 0.71*
  Glucosamine, plasma, treatment ratio versus control: 1.3*
  Glucose, plasma, treatment ratio versus control: 0.93*
  Glycerol, polar fraction, plasma, treatment ratio versus control: 0.87*
  Heneicosanoic acid (C21:0), plasma, treatment ratio versus control: 0.96
  Lactate, plasma, treatment ratio versus control: 0.72*
  Linolenic acid (C18:cis[9,12,15]3), plasma, treatment ratio versus control: 0.99
  Lysine, plasma, treatment ratio versus control: 0.86*
  Malate, plasma, treatment ratio versus control: 0.7*
  Oleic acid (C18:cis[9]1), plasma, treatment ratio versus control: 0.91
  Palmitoleic acid (C16:cis[9]1), plasma, treatment ratio versus control: 0.77
  Phenylalanine, plasma, treatment ratio versus control: 0.95*
  Phosphate (inorganic and organic phosphates), plasma, treatment ratio versus control: 1.02*
  Pyruvate, plasma, treatment ratio versus control: 0.72*
  Spermidine, plasma, treatment ratio versus control: 0.77*
  TAG (C16:0,C16:1), plasma, treatment ratio versus control: 1.06
  Uracil, plasma, treatment ratio versus control: 0.71*
  myo-Inositol, plasma, treatment ratio versus control: 0.93*
  trans-4-Hydroxyproline, plasma, treatment ratio versus control: 1.15
